What all share (assay): DTP human tumour cell line panel, 48 h
Experiment [1] deals with DMS 114 small cell lung.
Experiment [2] deals with HOP-18 NSCLC.
Experiment [3] concerns DLD-1 colon.
For experiment [4], the system named is M19-MEL melanoma.
The test system of experiment [5] is KM20L2 colon.
In experiment [6] the test system is RXF-631 renal.
For experiment [7], the system named is LXFL 529 NSCLC.
Experiment [8] concerns XF 498 CNS.
Experiment [9] concerns MDA-N.

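Cells were grown in 96-well plates and exposed to each compound for 48 hours at five concentrations; endpoints were interpolated linearly between bracketing concentrations, or set to the highest concentration if not reached. Here, GI50 denotes the concentration required for 50% inhibition of growth. TGI marks complete inhibition of growth.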 Bounds are passed on as bounds.

The term TGI denotes the concentration at which net growth stops. A low value points to more potent growth arrest. For the compound `O=[N+]([O-])c1cc(/C=N/NS(=O)(=O)c2ccc(F)cc2)c(O)c([N+](=O)[O-])c1`, the TGI was above 100 µM in [1]; above 100 µM in [2]; above 100 µM in experiment [3]; above 100 µM in experiment [4]; 59.3 µM in [5].

Consider `CC(C)(C)C[P+](C)(C)c1ccccc1`, for which the TGI in experiment [6], in experiment [1], in experiment [2], in experiment [3], in [4] and in experiment [7] was above 100 µM in each case. The compound also came in with a TGI in [5] above 100 µM.

For the compound `CCc1oc2ccc(OC)c3c2c1C=CC=C3`, the TGI in experiment [3], in experiment [4] and in experiment [7] was above 100 µM in each case.

One may read the GI50 as the concentration giving 50% growth inhibition. Consider `CC(C)[O-].CC(C)[O-].[O-]c1cccc2cccnc12.[O-]c1cccc2cccnc12.[Ti+4]`, for which the TGI in experiment [2] and in experiment [5] was above 100 µM throughout. Moreover, in experiment [3], the GI50 was 4.97 µM.

Regarding `CP(C)C.[Ag][I]`, the TGI in experiment [6] was above 100 µM; in [1], above 100 µM; in experiment [2], above 100 µM; in [3] it was above 100 µM; in experiment [8] it was 30.9 µM; in experiment [4], above 100 µM. Further, the total growth inhibition concentration (TGI) in experiment [7] is 31.8 µM; in experiment [5], above 100 µM.

With `CCOC(=O)CNC(=O)C(CSC(=O)N(C)O)NC(=O)CCC(N)C(=O)O` (configuration not stated), the GI50 in [1], in experiment [2], in experiment [3], in experiment [4], in experiment [7] and in experiment [5] was above 2000 µM in each case. Also, the TGI in experiment [2], in experiment [4], in experiment [7] and in experiment [5] was above 2000 µM in each case.

For the compound `N#C/C(=C\c1ccc(O)cc1O)C(N)=O`, the TGI in [3], in experiment [8], in experiment [4], in experiment [7] and in experiment [5] was above 100 µM each time.

For the compound `CCC[CH2][Sn]1([CH2]CCC)[O]C(=O)c2cc(C)ccc2[O]1`, the TGI in experiment [1] came out at 0.771 µM; in experiment [3], 1.83 µM; in experiment [7], 0.336 µM; in experiment [5], 2.64 µM. Moreover, the GI50 in experiment [3] is 0.537 µM; in [7], 0.129 µM; in [5], 1.35 µM.

Compound `NC(=O)NC(=O)C1CCCCC1C(=O)O` (configuration not stated) returned a TGI in [9] above 100 µM.

Consider `CO[C@@]12CC(=O)/C(=C(O)\C=C\c3ccccc3)C(=O)[C@]1(OC)Cc1ccccc1O2`, for which the TGI in [6], in [1], in [2], in [3], in experiment [8] and in experiment [4] was above 100 µM throughout. For the same compound, the values for the TGI in experiment [7] and in experiment [5] were above 100 µM and 49.2 µM, respectively.

Turning to `O=C1c2ccccc2C(=O)c2c(NC(=O)c3ccc4c5c(ncnc35)-c3ccccc3C4=O)cccc21`, the TGI in experiment [9] is above 100 µM.

With `C=C=[CH][Sn]([c]1ccccc1)([c]1ccccc1)[c]1ccccc1`, the GI50 is 1.52 µM in experiment [1]; 1.48 µM in experiment [3]; 1.62 µM in experiment [4]; 1.58 µM in [7]; 2.02 µM in experiment [5]. Besides, the total growth inhibition concentration (TGI) worked out at 2.94 µM in [1]; 4.15 µM in experiment [3]; 3.06 µM in experiment [4]; 3.02 µM in experiment [7]; 4 µM in experiment [5].

On to `CC[C@@]1(OC(=O)CN)C(=O)OCc2c1cc1n(c2=O)Cc2cc3c(N)c4c(cc3nc2-1)OCO4`, for which, in [9], the GI50 is 0.0127 µM and the total growth inhibition concentration (TGI) was above 100 µM.

For `Nn1c(N=Nc2c(O)[nH]c3ccccc23)n[nH]c1=S`, the TGI in [1] was above 100 µM; in [2], above 100 µM; in experiment [3], above 100 µM; in [8] it was 94 µM; in [4], above 100 µM; in [7], above 100 µM. In experiment [5], this compound showed a TGI above 100 µM.

For `CC12OC3CC(O1)C1(C=O)C4CCC5(C)C(c6ccc(=O)oc6)CCC5(O)C4CCC1(C3)O2` (configuration not stated), the TGI in experiment [1] was determined as 0.191 µM; in experiment [2], 0.748 µM; in experiment [3], 0.483 µM; in experiment [4] it was 1.16 µM; in [7], 0.432 µM; in experiment [5] it was 1.31 µM.

On to `N#CC12Cc3ccc4c(c3-c3cccc(c31)CCN2C(=O)c1ccccc1)OCO4` (configuration not stated), for which the TGI in [1], in [2], in experiment [3], in experiment [8], in [4] and in experiment [7] was above 100 µM in each case. In experiment [5], this compound returned a TGI above 100 µM.

For `CC1=NN(c2ccccc2)C(=O)C1N=Nc1ccc(Br)c(C)c1` (configuration not stated), the TGI in [6], in experiment [1], in experiment [2], in [3], in experiment [8] and in experiment [4] was above 100 µM in each case. Besides, the TGI in experiment [7] and in [5] was above 100 µM in each case.

With `C[C@]12CCCC(=O)C1C[C@H](C(=O)O)CC2` (some centres not stated), the TGI in [6], in experiment [1], in experiment [2], in [3], in experiment [8] and in experiment [4] was above 100 µM each time. Moreover, the TGI in experiment [7] and in experiment [5] was above 100 µM each time.

As to `NNC(=S)N/N=C/C(Cl)=C(\Cl)C(=O)O`, the concentration for total growth inhibition (TGI) in experiment [1], in [3], in experiment [8], in [4], in [7] and in experiment [5] was above 100 µM each time.

Values taken from PubChem BioAssay (NCI).
